Measurements as given in publication PMC3689883 (Journal of medicinal chemistry, 2013).
pKd, pKi: −log10 of the molar value.

Key:
[1] = biological target: AMPA receptors; settings: read-out: Ki [3H]AMPA; rat cortical synaptosomes; ref Clausen et al 14; cited from earlier work
[2] = biological target: NMDA receptors; settings: cited from earlier work
[3] = biological target: KA receptors; settings: cited from earlier work; for Ki [3H]KA: rat cortical synaptosomes, ref Clausen et al 14
[4] = biological target: GluN1/GluN2D (Rattus norvegicus, UniProt Q62645); assay: Two-electrode voltage-clamp, Xenopus oocytes expressing GluN1/GluN2D; type: cell-based; settings: EC50 GluN2A vs GluN2D
[5] = tested on: AMPA receptors; assay: [3H]AMPA radioligand binding, rat cortical synaptosomes; settings: at a concentration of 100 μM
[6] = tested on: KA receptors; assay: [3H]KA radioligand binding, rat cortical synaptosomes; settings: at a concentration of 100 μM

Sequence of GluN1/GluN2D (Q62645 28-1323, other chains not shown): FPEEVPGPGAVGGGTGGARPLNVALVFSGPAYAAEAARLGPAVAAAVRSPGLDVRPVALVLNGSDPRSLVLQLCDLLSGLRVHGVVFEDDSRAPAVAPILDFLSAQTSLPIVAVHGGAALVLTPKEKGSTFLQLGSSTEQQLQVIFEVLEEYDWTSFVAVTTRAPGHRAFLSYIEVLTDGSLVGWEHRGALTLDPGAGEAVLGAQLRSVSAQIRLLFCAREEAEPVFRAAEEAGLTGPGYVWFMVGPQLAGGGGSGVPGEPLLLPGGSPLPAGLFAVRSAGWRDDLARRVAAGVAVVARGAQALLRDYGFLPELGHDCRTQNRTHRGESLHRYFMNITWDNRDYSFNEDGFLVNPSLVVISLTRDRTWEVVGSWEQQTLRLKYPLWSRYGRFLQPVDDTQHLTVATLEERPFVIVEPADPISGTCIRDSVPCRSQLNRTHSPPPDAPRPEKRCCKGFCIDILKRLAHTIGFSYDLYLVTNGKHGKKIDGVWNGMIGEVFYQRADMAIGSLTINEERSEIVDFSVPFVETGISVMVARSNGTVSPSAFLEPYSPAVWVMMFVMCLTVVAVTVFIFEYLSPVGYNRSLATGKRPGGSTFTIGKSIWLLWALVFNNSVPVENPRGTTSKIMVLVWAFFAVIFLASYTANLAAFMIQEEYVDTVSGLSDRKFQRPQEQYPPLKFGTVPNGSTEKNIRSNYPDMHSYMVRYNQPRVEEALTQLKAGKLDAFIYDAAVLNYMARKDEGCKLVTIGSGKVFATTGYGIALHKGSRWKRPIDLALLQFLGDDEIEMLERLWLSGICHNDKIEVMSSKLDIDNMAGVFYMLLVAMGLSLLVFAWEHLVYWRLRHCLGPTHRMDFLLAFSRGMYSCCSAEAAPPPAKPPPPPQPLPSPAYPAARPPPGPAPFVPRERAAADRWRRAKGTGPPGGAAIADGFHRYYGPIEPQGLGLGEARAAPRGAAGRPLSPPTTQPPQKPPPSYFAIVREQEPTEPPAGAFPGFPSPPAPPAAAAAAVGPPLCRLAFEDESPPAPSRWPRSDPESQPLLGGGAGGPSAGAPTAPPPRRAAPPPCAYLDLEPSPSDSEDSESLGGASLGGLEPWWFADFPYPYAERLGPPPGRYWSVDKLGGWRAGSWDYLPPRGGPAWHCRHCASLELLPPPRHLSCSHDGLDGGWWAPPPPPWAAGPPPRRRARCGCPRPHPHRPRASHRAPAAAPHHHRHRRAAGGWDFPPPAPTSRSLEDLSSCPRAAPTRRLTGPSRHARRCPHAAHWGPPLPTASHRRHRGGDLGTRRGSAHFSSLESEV

Structure (SMILES): NC(C(=O)O)c1ccnn1O (racemic) [Compound 3a, (RS)-2-(N-hydroxypyrazol-5-yl)glycine]
- pKi [1]: < 4.00
- pKi ([2]; read-out: Ki [3H]CGP39653, rat cortical synaptosomes, ref Clausen et al 14): 5.00
- Ki [3H]KA [3]: >100 µM

Structure (SMILES): CCCc1cnn(O)c1[C@@H](N)C(=O)O [Compound 3b]
- pKi [1]: < 4.00
- Ki [3H]KA [3]: >100 µM

Structure (SMILES): CC[C@]1(C(=O)O)C[C@H]1[C@H](N)C(=O)O.Cl [Compound 4c, (1S,2R)-2-((S)-amino(carboxy)methyl)-1-ethylcyclopropanecarboxylic acid hydrochloride]
- fold more potent at GluN2D compared to GluN2A [4]: 15 fold

Structure (SMILES): CCCC[C@]1(C(=O)O)C[C@H]1[C@H](N)C(=O)O.Cl [Compound 4e, (1S,2R)-2-((S)-amino(carboxy)methyl)-1-butylcyclopropanecarboxylic acid hydrochloride]
- binding to AMPA receptors [5]: not binding
- binding to KA receptors [6]: not binding

Structure (SMILES): CCCC(=CC(N)C(=O)O)CP(=O)(O)O (stereo not shown) [[^3H]CGP 39653]
- pKd ([2]; read-out: Kd of radioligand, radioligand used at 2 nM): 8.22

Structure (SMILES): C=C(C)[C@H]1CN[C@H](C(=O)O)[C@H]1CC(=O)O [[^3H]KA, kainic acid]
- pKd ([3]; read-out: Kd of radioligand, radioligand used at 5 nM): 8.25
